These compounds were tested against Lethal factor protease (Bacillus anthracis, UniProt P15917) (assay: biochemical).
Sequence of Lethal factor protease (P15917 34-809 limits assumed): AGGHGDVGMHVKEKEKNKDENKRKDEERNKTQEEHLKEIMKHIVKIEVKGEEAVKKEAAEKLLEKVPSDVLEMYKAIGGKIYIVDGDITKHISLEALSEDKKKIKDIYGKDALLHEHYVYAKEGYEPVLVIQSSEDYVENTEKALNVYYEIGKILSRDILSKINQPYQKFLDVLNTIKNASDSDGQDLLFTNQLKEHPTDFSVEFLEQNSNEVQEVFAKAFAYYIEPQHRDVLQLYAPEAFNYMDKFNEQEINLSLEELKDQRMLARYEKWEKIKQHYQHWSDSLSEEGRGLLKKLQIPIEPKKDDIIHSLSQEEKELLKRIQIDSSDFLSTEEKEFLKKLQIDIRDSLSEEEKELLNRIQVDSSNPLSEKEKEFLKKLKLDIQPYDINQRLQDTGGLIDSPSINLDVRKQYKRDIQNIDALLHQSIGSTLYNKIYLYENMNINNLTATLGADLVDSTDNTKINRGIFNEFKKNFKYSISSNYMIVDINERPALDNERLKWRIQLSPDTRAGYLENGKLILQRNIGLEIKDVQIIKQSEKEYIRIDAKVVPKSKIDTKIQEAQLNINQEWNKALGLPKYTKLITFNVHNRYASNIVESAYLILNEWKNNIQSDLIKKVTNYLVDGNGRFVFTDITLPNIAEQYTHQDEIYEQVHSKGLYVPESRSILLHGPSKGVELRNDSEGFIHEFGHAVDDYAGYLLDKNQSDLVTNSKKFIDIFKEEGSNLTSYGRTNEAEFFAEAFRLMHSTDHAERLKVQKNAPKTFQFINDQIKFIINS

Question: Cc1cc(CN(CCCC[C@@H](Nc2cc(C)c(F)c(C)c2)C(=O)NO)Cc2ccc(F)c(C)c2)ccc1F [Compound 167933, (R)-6-[Bis-(4-fluoro-3-methyl-benzyl)-amino]-2-(4-fluoro-3,5-dimethyl-phenylamino)-hexanoic acid hydroxyamide] was tested. Which Ki did it give?
Answer: Its Ki is 1900 nM.

Question: For Cc1cc(N[C@H](CCCCNCc2ccc(F)cc2)C(=O)NO)ccc1F [Compound 167945, (R)-6-(4-Fluoro-benzylamino)-2-(4-fluoro-3-methyl-phenylamino)-hexanoic acid hydroxyamide], which Ki is on record?
Answer: The Ki was 30 nM.

Question: Which Ki does the source give for Cc1cc(CNCCCC[C@@H](Nc2ccc(F)c(C)c2)C(=O)NO)ccc1F [Compound 167946, (R)-6-(4-Fluoro-3-methyl-benzylamino)-2-(4-fluoro-3-methyl-phenylamino)-hexanoic acid hydroxyamide] here?
Answer: The Ki was 60 nM.

Question: Cc1cc(N[C@H](CCCCN)C(=O)NO)ccc1F [Compound 167949, (R)-6-Amino-2-(4-fluoro-3-methyl-phenylamino)-hexanoic acid hydroxyamide] was tested. Which Ki did it give?
Answer: The Ki was 200 nM.

Question: Cc1cc(N[C@H](CCCCN(Cc2ccc(F)cc2)Cc2ccc(F)cc2)C(=O)NO)ccc1F [Compound 167963, (R)-6-[Bis-(4-fluoro-benzyl)-amino]-2-(4-fluoro-3-methyl-phenylamino)-hexanoic acid hydroxyamide] was tested. Which Ki did it give?
Answer: Its Ki is 1100 nM.

Question: For Cc1cc(CN(CCCC[C@@H](Nc2ccc(F)c(C)c2)C(=O)NO)Cc2ccc(F)c(C)c2)ccc1F [Compound 167966, (R)-6-[Bis-(4-fluoro-3-methyl-benzyl)-amino]-2-(4-fluoro-3-methyl-phenylamino)-hexanoic acid hydroxyamide], which Ki is on record?
Answer: Its Ki is 6700 nM.

Question: How did the Ki turn out when Cc1cc(N[C@H](CCCCNCc2cc(C)c(F)c(C)c2)C(=O)NO)ccc1F [Compound 167968, (R)-6-(4-Fluoro-3,5-dimethyl-benzylamino)-2-(4-fluoro-3-methyl-phenylamino)-hexanoic acid hydroxyamide] was run?
Answer: The Ki was 100 nM.

Question: With Cc1cc(N[C@H](CCCCNCc2cc(C)c(OCc3ccccc3)c(C)c2)C(=O)NO)ccc1F [Compound 167969, (R)-6-(4-Benzyloxy-3,5-dimethyl-benzylamino)-2-(4-fluoro-3-methyl-phenylamino)-hexanoic acid hydroxyamide] as the compound, how does the Ki read?
Answer: Its Ki is 270 nM.

Question: Which Ki does the source give for Cc1cc(N[C@H](CCCCN(Cc2cc(C)c(F)c(C)c2)Cc2cc(C)c(F)c(C)c2)C(=O)NO)ccc1F [Compound 167971, (R)-6-[Bis-(4-fluoro-3,5-dimethyl-benzyl)-amino]-2-(4-fluoro-3-methyl-phenylamino)-hexanoic acid hydroxyamide] here?
Answer: Its Ki is 5200 nM.

Question: Cc1cc(N[C@H](CCCCNCc2ccc(F)nc2)C(=O)NO)ccc1F [Compound 167978, (R)-2-(4-Fluoro-3-methyl-phenylamino)-6-[(6-fluoro-pyridin-3-ylmethyl)-amino]-hexanoic acid hydroxyamide] was tested. Which Ki did it give?
Answer: Its Ki is 260 nM.

Question: For Cc1cc(N[C@H](CCCCNCCc2ccccc2)C(=O)NO)ccc1F [Compound 167979, (R)-2-(4-Fluoro-3-methyl-phenylamino)-6-phenethylamino-hexanoic acid hydroxyamide], which Ki is on record?
Answer: The Ki was 210 nM.

Question: With Cc1cc(N[C@H](CCCCNCc2ccccc2)C(=O)NO)ccc1F [Compound 167980, (R)-6-Benzylamino-2-(4-fluoro-3-methyl-phenylamino)-hexanoic acid hydroxyamide] as the compound, how does the Ki read?
Answer: Its Ki is 150 nM.

Question: Which Ki does the source give for Cc1cc(N[C@H](CCCCN(Cc2ccccc2)Cc2ccccc2)C(=O)NO)ccc1F [Compound 167982, (R)-6-Dibenzylamino-2-(4-fluoro-3-methyl-phenylamino)-hexanoic acid hydroxyamide] here?
Answer: The Ki was 1800 nM.

Question: How did the Ki turn out when Cc1cc(N[C@H](CCCCNCc2ccc(F)c(F)c2)C(=O)NO)ccc1F [Compound 167990, (R)-6-(3,4-Difluoro-benzylamino)-2-(4-fluoro-3-methyl-phenylamino)-hexanoic acid hydroxyamide] was run?
Answer: The Ki was 100 nM.

Question: For Cc1cc(N[C@H](CCCCN(CC2CCCCC2)CC2CCCCC2)C(=O)NO)ccc1F [Compound 167991, (R)-6-(Bis-cyclohexylmethyl-amino)-2-(4-fluoro-3-methyl-phenylamino)-hexanoic acid hydroxyamide], which Ki is on record?
Answer: Its Ki is 16600 nM.

Question: How did the Ki turn out when Cc1cc(N[C@H](CCCCNC(=O)CCc2ccccc2)C(=O)NO)ccc1F [Compound 167993, (R)-2-(4-Fluoro-3-methyl-phenylamino)-6-(3-phenyl-propionylamino)-hexanoic acid hydroxyamide] was run?
Answer: Its Ki is 880 nM.

Question: Which Ki does the source give for Cc1cc(N[C@H](CCCCNC(=O)CCCc2ccccc2)C(=O)NO)ccc1F [Compound 167994, (R)-2-(4-Fluoro-3-methyl-phenylamino)-6-(4-phenyl-butyrylamino)-hexanoic acid hydroxyamide] here?
Answer: Its Ki is 650 nM.

Question: With Cc1cc(N[C@H](CCCCNCc2ccc(Cl)s2)C(=O)NO)ccc1F [Compound 168008, (R)-6-[(5-Chloro-thiophen-2-ylmethyl)-amino]-2-(4-fluoro-3-methyl-phenylamino)-hexanoic acid hydroxyamide] as the compound, how does the Ki read?
Answer: Its Ki is 60 nM.

Question: With Cc1cc(N[C@H](CCCCNC(C)c2ccc(F)cc2)C(=O)NO)ccc1F (stereo partly drawn) [Compound 168010, (R)-2-(4-Fluoro-3-methyl-phenylamino)-6-[1-(4-fluoro-phenyl)-ethylamino]-hexanoic acid hydroxyamide] as the compound, how does the Ki read?
Answer: Its Ki is 70 nM.

Question: How did the Ki turn out when Cc1cc(N[C@H](CCCCN(Cc2ccc(F)cc2)Cc2ccc(F)cc2)C(=O)NO)cc(C)c1F [Compound 168047, (R)-6-[Bis-(4-fluoro-benzyl)-amino]-2-(4-fluoro-3,5-dimethyl-phenylamino)-hexanoic acid hydroxyamide] was run?
Answer: The Ki was 790 nM.

Question: With Cc1cc(N[C@H](CCCCN(Cc2ccc(F)nc2)Cc2ccc(F)nc2)C(=O)NO)ccc1F [Compound 168080, (R)-6-[Bis-(6-fluoro-pyridin-3-ylmethyl)-amino]-2-(4-fluoro-3-methyl-phenylamino)-hexanoic acid hydroxyamide] as the compound, how does the Ki read?
Answer: The Ki was 10600 nM.

Question: Which Ki does the source give for Cc1cc(COCCCC[C@@H](Nc2cc(C)c(F)c(C)c2)C(=O)NO)ccc1F [Compound 168116, (R)-2-(4-Fluoro-3,5-dimethyl-phenylamino)-6-(4-fluoro-3-methyl-benzyloxy)-hexanoic acid hydroxyamide] here?
Answer: Its Ki is 710 nM.

Question: With Cc1cc(CCCCCC[C@@H](Nc2cc(C)c(F)c(C)c2)C(=O)NO)ccc1F [Compound 168118, (R)-2-(4-Fluoro-3,5-dimethyl-phenylamino)-8-(4-fluoro-3-methyl-phenyl)-octanoic acid hydroxyamide] as the compound, how does the Ki read?
Answer: The Ki was 7200 nM.

Question: Which Ki does the source give for Cc1cc(N[C@H](CCCCNCc2ccc3c(c2)OCO3)C(=O)NO)ccc1F [Compound 168145, (R)-6-[(Benzo[1,3]dioxol-5-ylmethyl)-amino]-2-(4-fluoro-3-methyl-phenylamino)-hexanoic acid hydroxyamide] here?
Answer: Its Ki is 170 nM.

Question: With Cc1cc(N[C@H](CCCCNCC2CCCCC2)C(=O)NO)ccc1F [Compound 168146, (R)-6-(Cyclohexylmethyl-amino)-2-(4-fluoro-3-methyl-phenylamino)-hexanoic acid hydroxyamide] as the compound, how does the Ki read?
Answer: Its Ki is 250 nM.

Question: Which Ki does the source give for Cc1cc(N[C@H](CCCCN(C)Cc2ccc(F)cc2)C(=O)NO)ccc1F [Compound 168147, (R)-6-[(4-Fluoro-benzyl)-methyl-amino]-2-(4-fluoro-3-methyl-phenylamino)-hexanoic acid hydroxyamide] here?
Answer: The Ki was 190 nM.

Question: For Cc1cc(N[C@H](CCCCNCc2cccc(-c3ccccc3)c2)C(=O)NO)ccc1F [Compound 168165, (R)-6-[(Biphenyl-3-ylmethyl)-amino]-2-(4-fluoro-3-methyl-phenylamino)-hexanoic acid hydroxyamide], which Ki is on record?
Answer: Its Ki is 120 nM.

Source: US8242174B2 (priority 2007, dated 2012)
